Assay results from patent US11111227B2, “Rotigotine behenate, and manufacturing method and application thereof” (Shandong Luye Pharmaceutical Co., Ltd., priority 2016, dated 2021).
Each block holds one compound with its values, some of them ahead of it.

What was measured:
[1] = Test Example 3: pharmacokinetic performance of each drug injection in rats (intramuscular); format: in vivo
Procedure: Test Example 3: Pharmacokinetic Performance of Each Drug Injection in Rats
Male SD rats (provided by Shandong Luye Pharma Group Ltd.), weighing 190-280 g, 12 rats, 3 rats in each group.
Vehicle containing 1% of HPMC was prepared, and rotigotine arachidate, rotigotine behenate and rotigotine lignocerate were added to the vehicle respectively to provide 10 mg/ml of suspensions (calculated as rotigotine).
The experimental animals were randomly divided into rotigotine arachidate group (A), rotigotine behenate group (B) and rotigotine lignocerate group (C), with 3 rats in each group, The rats in Groups A, B and C were intramuscularly injected with the corresponding drug (2 ml/kg).
(§1) Blood samples were taken from the eyelids of the rats in Groups A, B, and C before the administration (0 h) and at 0.25 h, 1 h, 6 h, 1 d, 2 d, 3 d, 5 d, 7 d, 9 d, 11 d, 14 d, 16 d, 18 d, 21 d, 25 d, 28 d, 30 d, 35 d, 39 d, 42 d after administration. Each blood sample was placed into heparinized EP tube, and was immediately centrifuged (3000 rpm) for 10 min. The plasma was separated and stored at −35° C. for testing.

[2] = Test Example 1: pharmacokinetic performance of rotigotine caprylate injection in rats (intramuscular); format: in vivo
Procedure: Test Example 1: Pharmacokinetic Performance of Rotigotine Caprylate Injection in Rats
Rotigotine caprylate: prepared according to Comparative Example 1
Male SD rats (provided by Shandong Luye Pharma Group Ltd.), weighing 190-280 g, 3 rats.
Vehicle containing 1% of HPMC was prepared, and rotigotine caprylate was added to the vehicle to provide a 10 mg/ml of suspension (calculated as rotigotine). Three rats were intramuscularly injected with 2 mL/kg of the drug. Blood samples were taken from the eyelids of the rats before the administration (0 h) and at 0.25 h, 1 h, 6 h, 1 d, 2 d, 3 d, 5 d, 7 d, 9 d, 11 d, 14 d, 16 d, 18 d, 21 d, 24 d, 28 d after administration. Each blood sample was placed into heparinized EP tube, and was immediately centrifuged (3000 rpm) for 10 min. The plasma was separated and stored at −35° C. for testing.

[3] = Test Example 2: pharmacokinetic performance of each drug injection in rats (intramuscular, groups A-C); format: in vivo
Procedure: Test Example 2: Pharmacokinetic Performance of Each Drug Injection in Rats
(§2) Experimental animals: Male SD rats (provided by Shandong Luye Pharma Group Ltd.), weighing 190-280 g, 12 rats in total, 3 rats in each group.
(§3) Vehicle containing 1% of HPMC was prepared, and rotigotine oleate, rotigotine palmitate and rotigotine stearate were added to the vehicle respectively to provide 10 mg/ml of suspensions (calculated as rotigotine). Rotigotine hydrochloride was formulated as a 0.36 mg/ml injection (calculated as rotigotine) in normal saline.
(§4) The experimental animals were randomly divided into rotigotine oleate group (A), rotigotine palmitate group (B), rotigotine stearate group (C) and rotigotine hydrochloride group (D), with 3 rats in each group. The rats in Groups A, B, and C were intramuscularly injected with the corresponding drug (2 ml/kg), and the rats in group D were injected intravenously with the corresponding drug (2 ml/kg).
as §1, with “d, 24” for “d, 25”, “28” for “28 d, 30 d, 35 d, 39 d, 42”, “Each” for “Each blood”

[4] = Test Example 2: rotigotine hydrochloride intravenous injection in rats (group D); format: in vivo; conditions: male, SD, rat, plasma, rotigotine hydrochloride intravenous 2 ml/kg of 0.36 mg/ml injection, read-out: Blood concentration in rats
Procedure: Rotigotine hydrochloride: purity of 99.83%
as §2, §3, §4
Blood samples were taken from the eyelids of the rats in Group D before the administration (0 h) and at 3 min, 10 min, 0.25 h, 0.5 h, 1 h, 1.5 h, 2 h, 4 h, 6 h, 8 h, and 12 h after administration. Each blood sample was placed into heparinized EP tube, and was immediately centrifuged (3000 rpm) for 10 min. The plasma was separated and stored at −35° C. for testing.

[5] = first-pass effect of the liver; cited from earlier work

Compound: CCCCCCCCCCCCCCCCCCCC(=O)Oc1cccc2c1CCC(N(CCC)CCc1cccs1)C2 (stereo not shown) [Rotigotine arachidate]
Maintenance of the effective blood concentration [1]: maintained only for a short period of time

Compound: CCCCCCCC(=O)Oc1cccc2c1CC[C@H](N(CCC)CCc1cccs1)C2 [Rotigotine caprylate]
Maintenance of the effective blood concentration [2]: maintained only for a short period of time

Compound: CCCCCCCCCCCCCCCCCCCCCCCC(=O)Oc1cccc2c1CCC(N(CCC)CCc1cccs1)C2 (stereo not shown) [Rotigotine lignocerate]
Maintenance of the effective blood concentration [1]: cannot be maintained for more than two weeks

Compound: CCCCCCCC/C=C\CCCCCCCC(=O)Oc1cccc2c1CCC(N(CCC)CCc1cccs1)C2 (stereo not shown) [Rotigotine oleate]
Maintenance of the effective blood concentration [3]: maintained only for a short period of time

Compound: CCCN(CCc1cccs1)[C@H]1CCc2c(O)cccc2C1 [Rotigotine]
concentration at 1 h ([4]; 0.72 mg/kg (calculated as rotigotine), 1 h): 12.1 ng/mL
concentration at 1.5 h ([4]; 0.72 mg/kg (calculated as rotigotine), 1.5 h): 7.25 ng/mL
concentration at 2 h ([4]; 0.72 mg/kg (calculated as rotigotine), 2 h): 4.71 ng/mL
concentration at 0 h ([4]; 0.72 mg/kg, 0 h (before administration)): 0 ng/mL
concentration at 0.05 h ([4]; 0.72 mg/kg, 0.05 h): 82.5 ng/mL
concentration at 0.17 h ([4]; 0.72 mg/kg, 0.17 h): 43.8 ng/mL
concentration at 0.25 h ([4]; 0.72 mg/kg, 0.25 h): 45.4 ng/mL
concentration at 0.5 h ([4]; 0.72 mg/kg, 0.5 h): 29 ng/mL
concentration at 4 h ([4]; 0.72 mg/kg, 4 h): 0.99 ng/mL
concentration at 8 h ([4]; 0.72 mg/kg, 8 h): 0.16 ng/mL
concentration at 12 h ([4]; 0.72 mg/kg, 12 h): 0.04 ng/mL
Oral bioavailability [5]: 1%-5%

Next, values leading:

Maintenance of the effective blood concentration [1]: more than two weeks
Compound: CCCCCCCCCCCCCCCCCCCCCC(=O)Oc1cccc2c1CC[C@H](N(CCC)CCc1cccs1)C2 [Rotigotine behenate]

Maintenance of the effective blood concentration [3]: no more than two weeks
Compound: CCCCCCCCCCCCCCCC(=O)Oc1cccc2c1CCC(N(CCC)CCc1cccs1)C2 (stereo not shown) [Rotigotine palmitate]

Maintenance of the effective blood concentration [3]: no more than two weeks
Compound: CCCCCCCCCCCCCCCCCC(=O)Oc1cccc2c1CCC(N(CCC)CCc1cccs1)C2 (stereo not shown) [Rotigotine stearate]
